Experiments:
[1] = molecular target: Glycogen synthase kinase-3 beta (Homo sapiens, UniProt P49841); assay: Inhibitory concentration for Glycogen synthase kinase-3 beta was determined in the presence of 10 um ATP (Km 10 uM)
[2] = test system: HCT-116; assay: Inhibitor concentration to reduce HCT 116 cell line (tumor) growth by 50% over 72 h; format: functional; conditions: Homo sapiens, HCT-116, 72 h
[3] = molecular target: Cyclin-dependent kinase 2 (Homo sapiens, UniProt P24941); assay: Inhibitory concentration for Cyclin-dependent kinase 2 was determined in the presence of 100 um ATP (Km 50 uM)

Sequence of Glycogen synthase kinase-3 beta (P49841 whole entry): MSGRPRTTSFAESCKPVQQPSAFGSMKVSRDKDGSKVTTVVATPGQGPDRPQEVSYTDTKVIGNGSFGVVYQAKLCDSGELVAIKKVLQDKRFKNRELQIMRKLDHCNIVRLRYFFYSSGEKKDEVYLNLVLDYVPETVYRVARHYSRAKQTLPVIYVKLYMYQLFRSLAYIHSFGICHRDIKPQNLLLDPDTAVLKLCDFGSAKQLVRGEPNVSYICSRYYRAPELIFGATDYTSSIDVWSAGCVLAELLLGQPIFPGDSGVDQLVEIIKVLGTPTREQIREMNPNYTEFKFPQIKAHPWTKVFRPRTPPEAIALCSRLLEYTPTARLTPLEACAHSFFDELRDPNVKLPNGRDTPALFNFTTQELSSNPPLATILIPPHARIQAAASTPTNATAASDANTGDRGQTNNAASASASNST

SMILES | IC50 [1] | GI50 [2] | IC50 [3]
CN(C)S(=O)(=O)c1ccc(Nc2cc(N[C@H]3CC[C@H](N)CC3)nc3c(C4CCCC4)cnn23)cc1 | 22000 nM |  | 
CN(C)S(=O)(=O)c1ccc(Nc2cc(N[C@H]3CC[C@H](N)CC3)nc3c(Br)cnn23)cc1 | 3400 nM | 910 nM | 10 nM
N[C@H]1CC[C@H](Nc2cc(Nc3ccc(S(=O)(=O)c4ccccc4)cc3)n3ncc(Br)c3n2)CC1 | 5300 nM | 80 nM | 16 nM
CC(C)c1cnn2c(Nc3ccc(S(=O)(=O)N(C)C)cc3)cc(NC3CCCC(N)C3)nc12 (stereo not drawn) | > 50000 nM | 3400 nM | 2100 nM
CN(C)S(=O)(=O)c1ccc(Nc2cc(N[C@H]3CC[C@H](N)CC3)nc3c(Br)cnn23)cc1Cl | 8700 nM | 340 nM | 
CN(C)S(=O)(=O)c1ccc(Nc2cc(N[C@H]3CC[C@H](N)CC3)nc3c(Cl)cnn23)cc1 | 5100 nM | 2700 nM | 8 nM
CN(C)S(=O)(=O)c1ccc(Nc2cc(N[C@H]3CC[C@H](N)CC3)nc3c(C#N)cnn23)cc1 | 460 nM | 11000 nM | 
CC(C)c1cnn2c(Nc3ccc(S(=O)(=O)N(C)C)cc3)cc(N[C@H]3CC[C@H](N)CC3)nc12 | 40000 nM | 580 nM | 
N[C@H]1CC[C@H](Nc2cc(Nc3ccc(S(=O)(=O)c4cccs4)cc3)n3ncc(Cl)c3n2)CC1 |  | 120 nM | 11 nM
CC(C)COc1cc(Nc2ccc(S(=O)(=O)N(C)C)cc2)n2ncc(C(C)C)c2n1 | 50000 nM | 7600 nM | 1200 nM
CC(C)c1cnn2c(Nc3ccc(S(=O)(=O)N(C)C)cc3)cc(O[C@H]3CC[C@H](N)CC3)nc12 | 28000 nM | 710 nM | 
CCN[C@H]1CC[C@H](Nc2cc(Nc3ccc(S(=O)(=O)N(C)C)cc3)n3ncc(C(C)C)c3n2)CC1 | > 50000 nM | 1200 nM | 61 nM
CCN(CC)[C@H]1CC[C@H](Nc2cc(Nc3ccc(S(=O)(=O)N(C)C)cc3)n3ncc(C(C)C)c3n2)CC1 | > 50000 nM | 16000 nM | 
CC(C)COc1cc(Nc2ccc(S(C)(=O)=O)cc2)n2ncc(C(C)C)c2n1 | 12000 nM | 7800 nM | 

Source: ChEMBL document CHEMBL1141971, “Structure-guided design of pyrazolo[1,5-a]pyrimidines as inhibitors of human cyclin-dependent kinase 2” (Bioorg Med Chem Lett, 2005)
